Values quoted from earlier work as cited in patent US12350279B2, “Nasal rinse compositions and methods” (Campbell Holding Company LLC, priority 2022, dated 2025).

Tests used:
[1] = animal models
[2] = tested on: allergic asthma animal model
[3] = tested on: animal models of chronic asthma

In the case of `C=C(C)[C@@H]1CCC(C)=C[C@H]1c1c(O)cc(CCCCC)cc1O` [CBD, Cannabidiol], the “time to absorption after intranasal application” value [1] is given as ≤ 10 min, the “effect on inflammatory and remodeling process, airway hyperreactivity” value [2] is given as “reduced the inflammatory and remodeling process with decreased airway hyperreactivity” and the effect on cytokines [3] is given as “reduce relevant cytokines”.
